Assay results from ChEMBL document CHEMBL1201862, “PubChem BioAssay data set” (2004).
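Growth conditions: 96-well plates. Treatment: test compound, 48 hours, 5 concentrations. Analysis: linear interpolation between bracketing concentrations; unreached endpoints set to highest concentration. GI50 = concentration required for 50% inhibition of growth.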 Activity calls are given as the source filed them. No stated cut-off is given here; in the data, active = GI50 up to about 1.1 µM and inactive = higher.

Assays:
Experiment in all cases: inhibition of tumour cell growth, NCI panel, 48 h
MCF7 = tested on: MCF7
HOP-62 = tested on: HOP-62
MOLT-4 = tested on: MOLT-4
SK-OV-3 = tested on: SK-OV-3
A498 = tested on: A498
SN12C = tested on: SN12C
OVCAR-3 = tested on: OVCAR-3
IGROV-1 = tested on: IGROV-1
ACHN = tested on: ACHN
SK-MEL-5 = tested on: SK-MEL-5
M14 = tested on: M14
SF-268 = tested on: SF-268
SF-539 = tested on: SF-539
PC-3 = tested on: PC-3
HCT-116 = tested on: HCT-116
SF-295 = tested on: SF-295
A549 = tested on: A549
NCI-H226 = tested on: NCI-H226
COLO 205 = tested on: COLO 205

| SMILES | GI50 (MCF7) | GI50 (HOP-62) | GI50 (MOLT-4) | GI50 (SK-OV-3) | GI50 (A498) | GI50 (SN12C) | GI50 (OVCAR-3) | GI50 (IGROV-1) | GI50 (ACHN) | GI50 (SK-MEL-5) | GI50 (M14) | GI50 (SF-268) | GI50 (SF-539) | GI50 (PC-3) | GI50 (HCT-116) | GI50 (SF-295) | GI50 (A549) | GI50 (NCI-H226) | GI50 (COLO 205) |
| --- | --- | --- | --- | --- | --- | --- | --- | --- | --- | --- | --- | --- | --- | --- | --- | --- | --- | --- | --- |
| CC(=O)NNc1nc(C)c(C(/C=C/c2ccc3c(c2)OCO3)=N/NC(=O)c2ccncc2)s1 | > 100 µM (inactive) | > 100 µM (inactive) | > 100 µM (inactive) | > 100 µM (inactive) | > 100 µM (inactive) | > 100 µM (inactive) | > 100 µM (inactive) | > 100 µM (inactive) | > 100 µM (inactive) | > 100 µM (inactive) | > 100 µM (inactive) | > 100 µM (inactive) | > 100 µM (inactive) | > 100 µM (inactive) | > 100 µM (inactive) | > 100 µM (inactive) | > 100 µM (inactive) | > 100 µM (inactive) | – |
| COc1ccc(C2N(c3ccc(F)c([N+](=O)[O-])c3)C(=O)N3C(c4ccc(OC)cc4)N(c4ccc(F)c([N+](=O)[O-])c4)C(=O)N23)cc1 (centres undefined) | > 100 µM (inactive) | > 100 µM (inactive) | – | – | > 100 µM (inactive) | > 100 µM (inactive) | > 100 µM (inactive) | > 100 µM (inactive) | > 100 µM (inactive) | > 100 µM (inactive) | 65.9 µM (inactive) | > 100 µM (inactive) | > 100 µM (inactive) | > 100 µM (inactive) | > 100 µM (inactive) | > 100 µM (inactive) | > 100 µM (inactive) | – | > 100 µM (inactive) |
| O=c1[nH]c2c(C(F)(F)F)c(Cl)c(-c3ccccc3)nc2o1 | 45.6 µM (inactive) | 35.4 µM (inactive) | 13.7 µM (inactive) | 23.6 µM (inactive) | 57.8 µM (inactive) | 10.9 µM (inactive) | 17.3 µM (inactive) | 41.8 µM (inactive) | 65.5 µM (inactive) | 4.83 µM (inactive) | 21.5 µM (inactive) | 54.7 µM (inactive) | – | 23.2 µM (inactive) | 16.1 µM (inactive) | 13.3 µM (inactive) | 19.8 µM (inactive) | 30.3 µM (inactive) | 14.9 µM (inactive) |
| Nc1nc(NCCCO)cc(=O)[nH]1 | > 100 µM (inactive) | > 100 µM (inactive) | > 100 µM (inactive) | > 100 µM (inactive) | > 100 µM (inactive) | > 100 µM (inactive) | > 100 µM (inactive) | > 100 µM (inactive) | > 100 µM (inactive) | > 100 µM (inactive) | > 100 µM (inactive) | > 100 µM (inactive) | – | > 100 µM (inactive) | > 100 µM (inactive) | > 100 µM (inactive) | > 100 µM (inactive) | > 100 µM (inactive) | > 100 µM (inactive) |
| Nc1nc(Cl)cc(NCC2(O)CCC2)n1 | > 100 µM (inactive) | > 100 µM (inactive) | > 100 µM (inactive) | > 100 µM (inactive) | > 100 µM (inactive) | > 100 µM (inactive) | > 100 µM (inactive) | > 100 µM (inactive) | > 100 µM (inactive) | > 100 µM (inactive) | – | > 100 µM (inactive) | > 100 µM (inactive) | > 100 µM (inactive) | > 100 µM (inactive) | > 100 µM (inactive) | > 100 µM (inactive) | > 100 µM (inactive) | > 100 µM (inactive) |
| CC(C)N(c1cc2c(cc1F)c(=O)c(C(=O)O)cn2-c1ccc(N2CCN(C)CC2)cn1)C(C)C | > 100 µM (inactive) | > 100 µM (inactive) | > 100 µM (inactive) | > 100 µM (inactive) | > 100 µM (inactive) | > 100 µM (inactive) | > 100 µM (inactive) | > 100 µM (inactive) | – | – | > 100 µM (inactive) | > 100 µM (inactive) | > 100 µM (inactive) | > 100 µM (inactive) | > 100 µM (inactive) | > 100 µM (inactive) | > 100 µM (inactive) | > 100 µM (inactive) | > 100 µM (inactive) |
| CC(=O)[C@@H]1[C@@H](OC(=O)CCC(C)COC2OC(CO)C(O)C(O)C2O)C[C@H]2[C@@H]3CC=C4C[C@@H](OC5OC(CO)C(OC6OC(C)C(O)C(O)C6O)C(O)C5OC5OC(C)C(O)C(O)C5O)CC[C@]4(C)[C@H]3CC[C@]12C (some centres undefined) | > 100 µM (inactive) | > 100 µM (inactive) | > 100 µM (inactive) | > 100 µM (inactive) | > 100 µM (inactive) | > 100 µM (inactive) | > 100 µM (inactive) | – | > 100 µM (inactive) | > 100 µM (inactive) | > 100 µM (inactive) | > 100 µM (inactive) | – | > 100 µM (inactive) | > 100 µM (inactive) | > 100 µM (inactive) | > 100 µM (inactive) | – | > 100 µM (inactive) |
| CC(NC(=O)CNP(=O)(c1ccccc1)c1ccccc1)C(=O)NC(Cc1ccccc1)C(=O)OCc1ccccc1 (centres undefined) | 24.6 µM (inactive) | > 100 µM (inactive) | 20.5 µM (inactive) | 21 µM (inactive) | > 100 µM (inactive) | 42.7 µM (inactive) | 43 µM (inactive) | 66.5 µM (inactive) | – | 25.7 µM (inactive) | 49.7 µM (inactive) | 21.6 µM (inactive) | 62.2 µM (inactive) | 60.7 µM (inactive) | 34.9 µM (inactive) | 19 µM (inactive) | > 100 µM (inactive) | > 100 µM (inactive) | > 10 µM (inactive) |
| CCCCCCCCCC[C@H](O)[C@H](O)CC[C@@H](O)[C@H]1CC[C@@H]([C@H]2CC[C@H](CCCCCCC[C@@H](O)CC3=C[C@H](C)OC3=O)O2)O1 | 1.16 µM (inactive) | 2.42 µM (inactive) | 2.26 µM (inactive) | – | 8.97 µM (inactive) | 4.06 µM (inactive) | 1.42 µM (inactive) | 2.72 µM (inactive) | 17.4 µM (inactive) | 1.06 µM (active) | 3.34 µM (inactive) | 2.15 µM (inactive) | 4.48 µM (inactive) | 2.23 µM (inactive) | 2.64 µM (inactive) | 1.22 µM (inactive) | 1.84 µM (inactive) | 1.47 µM (inactive) | 1.71 µM (inactive) |
| COc1nc2c(c(=O)n1C)N[C@@H]1[C@@H](O)[C@H](O)CO[C@@H]1N2 | > 100 µM (inactive) | > 100 µM (inactive) | > 100 µM (inactive) | > 100 µM (inactive) | > 100 µM (inactive) | > 100 µM (inactive) | > 100 µM (inactive) | > 100 µM (inactive) | – | > 100 µM (inactive) | > 100 µM (inactive) | > 100 µM (inactive) | > 100 µM (inactive) | > 100 µM (inactive) | > 100 µM (inactive) | > 100 µM (inactive) | > 100 µM (inactive) | > 100 µM (inactive) | > 100 µM (inactive) |
| O=C(CNc1cccc([N+](=O)[O-])c1)Nn1c(-c2ccccc2)nc2ccccc2c1=O | 0.389 µM (active) | 1.97 µM (inactive) | 0.246 µM (active) | 0.573 µM (active) | 0.0112 µM (active) | 0.508 µM (active) | 2.38 µM (inactive) | 0.201 µM (active) | 1.4 µM (inactive) | 1.02 µM (active) | – | 1.69 µM (inactive) | 1.97 µM (inactive) | 0.543 µM (active) | 0.508 µM (active) | 1.58 µM (inactive) | 1.74 µM (inactive) | 0.2 µM (active) | 1.43 µM (inactive) |
| C[C@]12CC(c3ccccc3O1)C(C#N)C(=O)N2 (some centres undefined) | > 100 µM (inactive) | > 100 µM (inactive) | > 100 µM (inactive) | > 100 µM (inactive) | > 100 µM (inactive) | > 100 µM (inactive) | > 100 µM (inactive) | > 100 µM (inactive) | > 100 µM (inactive) | > 100 µM (inactive) | > 100 µM (inactive) | > 100 µM (inactive) | – | > 100 µM (inactive) | > 100 µM (inactive) | – | > 100 µM (inactive) | > 100 µM (inactive) | > 100 µM (inactive) |
| COc1ccc(/C=C2\CCC(C)C3=C2N=c2s/c(=C/c4cccc(Br)c4)c(=O)n2C3c2ccc(OC)c(OC)c2)cc1OC (centres undefined) | > 100 µM (inactive) | > 100 µM (inactive) | > 100 µM (inactive) | > 100 µM (inactive) | > 100 µM (inactive) | > 100 µM (inactive) | – | > 100 µM (inactive) | > 100 µM (inactive) | > 100 µM (inactive) | > 100 µM (inactive) | > 100 µM (inactive) | – | > 100 µM (inactive) | > 100 µM (inactive) | – | > 100 µM (inactive) | – | – |
| O=C([O-])C1([n+]2c(-c3ccccc3)cc(-c3ccccc3)cc2-c2ccccc2)CC1 | 28.1 µM (inactive) | > 100 µM (inactive) | 65.6 µM (inactive) | – | > 100 µM (inactive) | > 100 µM (inactive) | 38.6 µM (inactive) | 32.8 µM (inactive) | > 100 µM (inactive) | 19.6 µM (inactive) | 43.6 µM (inactive) | 42.3 µM (inactive) | > 100 µM (inactive) | 80.4 µM (inactive) | 41.1 µM (inactive) | > 100 µM (inactive) | > 100 µM (inactive) | > 100 µM (inactive) | – |
| CCC(C)N1CN(c2ccccc2)C2(CCN(CCCSc3ccc(F)cc3)CC2)C1=O (centres undefined) | 3.09 µM (inactive) | 2.11 µM (inactive) | 3 µM (inactive) | 4.92 µM (inactive) | – | 3.78 µM (inactive) | 2.33 µM (inactive) | 4.31 µM (inactive) | 3.15 µM (inactive) | 1.96 µM (inactive) | 2.34 µM (inactive) | 6.75 µM (inactive) | 2.57 µM (inactive) | 6.35 µM (inactive) | 2.88 µM (inactive) | 2.35 µM (inactive) | 3.94 µM (inactive) | 4.34 µM (inactive) | 1.72 µM (inactive) |
